Structures can show the parent of a compound that is named as a salt.
Assay: collision cross section in nitrogen (drift tube, single-field); higher = larger gas-phase ion size
[1] = ion type: [M-H], ion source: ESI, ion mode: Negative
[2] = ion type: [M+H], ion source: APCI, ion mode: Positive
[3] = ion type: [M+H], ion source: ESI, ion mode: Positive
[4] = ion type: [M+Na], ion source: ESI, ion mode: Positive
[5] = ion type: [M+], ion source: APCI, ion mode: Positive
[6] = ion source: ESI, ion mode: Positive, ion type: [M]+ (permanent cation)
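Note: chemical standards at 10 µM analysed by drift tube IMS-QTOF MS in about 3.95 torr nitrogen, mean of duplicate injections differing ≤1%, mass error below 10 ppm.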

| SMILES | collision cross section in nitrogen [1] [Å²] | collision cross section in nitrogen [3] [Å²] | collision cross section in nitrogen [4] [Å²] | collision cross section in nitrogen [2] [Å²] | also measured |
| --- | --- | --- | --- | --- | --- |
| COc1nn(C(=O)NS(=O)(=O)c2ccccc2OC(F)(F)F)c(=O)n1C [Flucarbazone-sodium] | 182.9 | – | – | – | – |
| OC(Cn1cncn1)(Cn1cncn1)c1ccc(F)cc1F [Fluconazole] | – | 167.2 | 172 | 167.5 | – |
| CC(C)C(C(=O)OC(C#N)c1cccc(Oc2ccccc2)c1)c1ccc(OC(F)F)cc1 (stereo not given) [Flucythrinate] | – | – | 208.3 | 214.8 | – |
| N#Cc1c[nH]cc1-c1cccc2c1OC(F)(F)O2 [Fludioxonil] | 146.3 | – | – | – | – |
| CC(C)N(C(=O)COc1nnc(C(F)(F)F)s1)c1ccc(F)cc1 [Flufenacet] | – | – | 187.5 | – | – |
| O=C(O)c1ccccc1Nc1cccc(C(F)(F)F)c1 [Flufenamic acid] | 160.9 | – | – | – | collision cross section in nitrogen [5]: 157.7 Å² |
| O=C(NC(=O)c1c(F)cccc1F)Nc1ccc(Oc2ccc(C(F)(F)F)cc2Cl)cc1F [Flufenoxuron] | 215.8 | – | – | – | – |
| Cc1ccn2nc(S(=O)(=O)Nc3c(F)cccc3F)nc2n1 [Flumetsulam] | 172.5 | 167.7 | 176.7 | 167.4 | – |
| C#CCN1C(=O)COc2cc(F)c(N3C(=O)C4=C(CCCC4)C3=O)cc21 [Flumioxazin] | 184.5 | 183.7 | – | – | collision cross section in nitrogen [5]: 181 Å² |
| CN(C)C(=O)Nc1cccc(C(F)(F)F)c1 [Fluometuron] | 146.2 | 150.1 | 155 | 150.5 | – |
| O=C1OC2(c3ccc(O)cc3Oc3cc(O)ccc32)c2ccccc21 [Fluorescein sodium] | 176.1 | 173.8 | 189.1 | 174.3 | – |
| O=C(Nc1cccc(C(F)(F)F)c1)c1cc(Br)cc(Br)c1O [Fluorosalan] | 175.5 | – | – | – | – |
| CO/N=C(/C1=NOCCO1)c1ccccc1Oc1ncnc(Oc2ccccc2Cl)c1F [Fluoxastrobin] | – | 204.3 | 208.1 | 204.8 | – |
| Nc1c(Cl)c(F)nc(OCC(=O)O)c1Cl [Fluroxypyr] | 141.3 | – | – | – | – |
| C[Si](Cn1cncn1)(c1ccc(F)cc1)c1ccc(F)cc1 [Flusilazole] | – | 174.9 | – | 176.6 | – |
| CC(C)Oc1cccc(NC(=O)c2ccccc2C(F)(F)F)c1 [Flutolanil] | 176.1 | 172.7 | 183.5 | 173.1 | – |
| OC(Cn1cncn1)(c1ccc(F)cc1)c1ccccc1F (stereo not given) [Flutriafol] | – | 167.5 | 183.1 | – | – |
| O=C(Nc1ccccc1)Nc1ccnc(Cl)c1 [Forchlorfenuron] | 155.2 | 156.9 | – | 156.5 | – |

| SMILES | collision cross section in nitrogen [1] [Å²] | collision cross section in nitrogen [3] [Å²] | collision cross section in nitrogen [4] [Å²] | collision cross section in nitrogen [2] [Å²] | also measured |
| --- | --- | --- | --- | --- | --- |
| CNC(=O)Oc1cccc(N=CN(C)C)c1 [Formetanate hydrochloride] | – | 156 | – | – | – |
| COc1ccc(-c2coc3cc(O)ccc3c2=O)cc1 [Formononetin] | – | 160.3 | 171.4 | 159.8 | collision cross section in nitrogen [5]: 156.9 Å² |
| CCOP(=O)(SC(C)CC)N1CCSC1=O (stereo not given) [Fosthiazate] | – | – | 168.2 | – | – |
| c1coc(-c2nc3ccccc3[nH]2)c1 [Fuberidazole] | 138 | 136.8 | – | 136.1 | – |
| C[C@]12CC[C@@H]3c4ccc(O)cc4C[C@@H](CCCCCCCCCS(=O)CCCC(F)(F)C(F)(F)F)[C@H]3[C@@H]1CC[C@@H]2O (stereo not given in full) [Fulvestrant] | 246.5 | 242.9 | 247.6 | 243.5 | – |
| COC(=O)C(C)N(C(=O)c1ccco1)c1c(C)cccc1C (stereo not given) [Furalaxyl] | – | 161.4 | 178 | 162.1 | – |
| CCCCOC(=O)N(C)SN(C)C(=O)Oc1cccc2c1OC(C)(C)C2 [Furathiocarb] | – | 190.5 | 195 | 191.3 | – |
| NS(=O)(=O)c1cc(C(=O)O)c(NCc2ccco2)cc1Cl [Furosemide] | 173 | – | – | – | – |
| CCCOC(=O)c1cc(O)c(O)c(O)c1 [Gallic acid n-propyl ester] | 146.5 | – | – | – | – |
| O=c1c(-c2ccc(O)cc2)coc2cc(O)cc(O)c12 [Genistein] | 161.6 | 160.3 | 171.3 | 160.3 | – |
| CN(C)c1ccc(C(=C2C=CC(=[N+](C)C)C=C2)c2ccc(N(C)C)cc2)cc1 [Gentian Violet] | – | – | – | – | collision cross section in nitrogen (ion source: APCI, ion mode: Positive, ion type: [M]+ (permanent cation)): 205 Å²; collision cross section in nitrogen [6]: 205.8 Å² |
| C=C1C[C@]23C[C@@]1(O)CC[C@H]2[C@@]12C=C[C@H](O)[C@@](C)(C(=O)O1)[C@H]2[C@@H]3C(=O)O [Gibberellic acid] | 176.4 | – | – | – | – |
| CCCCCCCC/C=C\CCCCCCCC(=O)OCC(O)CO (stereo not given) [Glyceryl monooleate] | – | – | 197.2 | – | – |
| C[N+](C)(C)CC1CO1 (stereo not given) [Glycidyl trimethylammonium chloride] | – | – | – | – | collision cross section in nitrogen [6]: 120.7 Å² |
| C[C@H](CCC(=O)NCC(=O)O)[C@H]1CC[C@H]2[C@@H]3[C@H](O)C[C@@H]4C[C@H](O)CC[C@]4(C)[C@H]3C[C@H](O)[C@]12C [Glycocholic acid] | 202.5 | – | 201.7 | – | – |
| CC1(C)[C@@H](O[C@H]2O[C@H](C(=O)O)[C@@H](O)[C@H](O)[C@H]2O[C@@H]2O[C@H](C(=O)O)[C@@H](O)[C@H](O)[C@H]2O)CC[C@]2(C)[C@H]3C(=O)C=C4[C@@H]5C[C@@](C)(C(=O)O)CC[C@]5(C)CC[C@@]4(C)[C@]3(C)CC[C@@H]12 [Glycyrrhizin] | 281.7 | 288.9 | 296.2 | – | – |
| CCCCCCC(CCCCCCCCCCC(=O)OCC(COC(C)=O)OC(C)=O)OC(C)=O (stereo not given) [Grinstad Soft-N-Safe] | – | – | 225.2 | – | – |
| COC1=CC(=O)C[C@@H](C)[C@]12Oc1c(Cl)c(OC)cc(OC)c1C2=O [Griseofulvin] | – | 181.6 | 189.6 | 182 | – |

Now from value to molecule, other results behind:

| collision cross section in nitrogen [1] [Å²] | collision cross section in nitrogen [3] [Å²] | collision cross section in nitrogen [4] [Å²] | SMILES | collision cross section in nitrogen [2] [Å²] | also measured |
| --- | --- | --- | --- | --- | --- |
| 183.3 | 182.1 | 191.4 | CCOC(=O)COc1cc(-n2ncc(C(F)(F)F)c(C)c2=O)c(F)cc1Cl [Flufenpyr-ethyl] | – | – |
| 196.2 | – | 209.5 | CCCCCOC(=O)COc1cc(N2C(=O)C3=C(CCCC3)C2=O)c(F)cc1Cl [Flumiclorac-pentyl] | – | – |
| 194.2 | – | 226.8 | CC1(C)O[C@@H]2C[C@H]3[C@@H]4C[C@H](F)C5=CC(=O)C=C[C@]5(C)[C@@]4(F)[C@@H](O)C[C@]3(C)[C@]2(C(=O)CO)O1 [Fluocinolone acetonide] | – | – |
| – | 175.4 | 187 | O=C(NCc1ncc(C(F)(F)F)cc1Cl)c1c(Cl)cccc1Cl [Fluopicolide] | – | – |
| 176.8 | 174.2 | 190.6 | O=C1OC2(c3ccc(O)cc3Oc3cc(O)ccc32)c2ccccc21 [Fluorescein] | 174.2 | – |
| – | – | 210.7 | CCOC(=O)COC(=O)c1cc(Oc2ccc(C(F)(F)F)cc2Cl)ccc1[N+](=O)[O-] [Fluoroglycofen-ethyl] | – | – |
| – | – | 211.3 | CC(=O)[C@@]1(O)CC[C@H]2[C@@H]3C[C@H](C)C4=CC(=O)C=C[C@]4(C)[C@@]3(F)[C@@H](O)C[C@@]21C [Fluorometholone] | 186.6 | – |
| 201.8 | 186.9 | – | CC1(C)O[C@@H]2C[C@H]3[C@@H]4C[C@H](F)C5=CC(=O)CC[C@]5(C)[C@H]4[C@@H](O)C[C@]3(C)[C@]2(C(=O)CO)O1 [Flurandrenolide] | – | – |
| 176.2 | – | 194.3 | CCCCCCC(C)OC(=O)COc1nc(F)c(Cl)c(N)c1Cl (stereo not given) [Fluroxypyr-meptyl] | – | – |
| 154.9 | – | – | CC(C)C(=O)Nc1ccc([N+](=O)[O-])c(C(F)(F)F)c1 [Flutamide] | – | – |
| 200 | – | – | CC(C)n1c(/C=C/[C@H](O)C[C@H](O)CC(=O)O)c(-c2ccc(F)cc2)c2ccccc21 [Fluvastatin] | – | – |
| – | – | 194.3 | C=C[C@@]1(C)CC(=O)[C@]2(O)[C@@]3(C)[C@@H](O)CCC(C)(C)[C@@H]3[C@H](O)[C@H](OC(C)=O)[C@@]2(C)O1 [Forskolin] | – | – |
| 150.8 | – | – | O=C1OCCN1N=Cc1ccc([N+](=O)[O-])o1 [Furazolidone] | – | – |
| 151.5 | – | – | CC(=O)OC/C=C(\C)CCC=C(C)C [Geranyl acetate] | – | – |
| 213.2 | 206.6 | 217.6 | COc1ccc(Cl)cc1C(=O)NCCc1ccc(S(=O)(=O)NC(=O)NC2CCCCC2)cc1 [Glybenclamide] | – | – |
| – | – | 201.2 | CCCCCCCCCCCCCCCCCC(=O)OCC(O)CO (stereo not given) [Glycerol 1-monostearate] | – | – |
| – | – | 201.9 | CCCCCC[C@@H](O)C/C=C\CCCCCCCC(=O)OCC(O)CO (stereo not given in full) [Glyceryl monoricinoleate] | – | – |
| 169.5 | – | 175.8 | CCCCCCCCCCCC(=O)N(C)CC(=O)O [Glycine, N-methyl-N-(1-oxododecyl)-, sodium salt] | – | – |
| – | – | 147.2 | COc1ccccc1OCC(O)CO (stereo not given) [Guaifenesin] | – | – |
| – | 130.3 | – | Nc1nc2[nH]cnc2c(=O)[nH]1 [Guanine] | – | – |
